According to patent US20060148760A1, “Method for the sysnthesis of compounds of formula I and their uses thereof” (TransTech Pharma, priority 2000, published 2006):
Counter-ions that a name gives are not always drawn.

Key:
[1] = target: T1, Carboxymethyl Lysine (CML)/RAGE interaction (Homo sapiens, UniProt Q15109); assay: ELISA assay, CML binding to sRAGE; details: plate-bound CML
T1 construct: generate soluble RAGE (sRAGE) comprised of the V and C domains
Protocol: (§1) S100b, β-amyloid and CML (500 ng/100 μL/well) in 100 mM sodium bicarbonate/sodium carbonate buffer (pH 9.8) is loaded onto the wells of a NUNC Maxisorp flat bottom 96—well microtitre plate. The plate is incubated at 4° C. overnight. The wells are aspirated and treated with 50 mM imidazole buffer saline (pH 7.2) (with 1 mM CaCl2/MgCl2) containing 1% bovine serum albumin (BSA) (300 μL/well) for two h at 37° C.
(§2) Test compounds are dissolved in nanopure water (concentration: 10-100 μM). DMSO may be used as co-solvent. 25 μL of test compound solution in 2% DMSO is added, along with 75 μL sRAGE (4.0×10^−4 mg/mL FAC) to each well and samples are incubated for 1 h at 37° C. The wells are washed 3 times with 155 mM NaCl pH 7.2 buffer saline and are soaked 10 seconds between each wash. Non-radioactive binding is performed by adding:
(§3) 10 μL Biotinylated goat F(ab′)2 Anti-mouse IgG. (8.0×10^−4 mg/mL, FAC)
(§4) 10 μL Alk-phos-Sterptavidin (3×10^−3 mg/mL FAC)
(§5) 10 μL Polyclonal antibody for sRAGE (FAC 6.0×10^−3 mg/mL) to 5 mL 50 mM imidazole buffer saline (pH 7.2) containing 0.2% bovine serum albumin and 1 mM CaCl2. The mixture is incubated for 30 minutes at 37° C. 100 μL complex is added to each well and incubation is allowed to proceed at rt for 1 h. Wells are washed 3 times with wash buffer and soaked 10 s between each wash. 100 μL 1 mg/mL (pNPP) in 1 M diethanolamine (pH adjusted to 9.8 with HCl) is added. […] The reaction is quenched with 10 μL of stop solution (0.5 N NaOH in 50% ethanol) and the absorbance is measured spectrophotometrically with a microplate reader at 405 nm.

S-100b/RAGE interaction = target: T2, S-100b/RAGE interaction (Homo sapiens, UniProt Q15109); assay: ELISA assay, S-100b binding to sRAGE; details: plate-bound S100b, concentration at which 50% signal is inhibited
T2 construct: generate soluble RAGE (sRAGE) comprised of the V and C domains
Protocol: as §1, §2, §3, §4, §5

[2] = target: T3, β-amyloid—RAGE interaction (Homo sapiens, UniProt Q15109); assay: ELISA assay, β-amyloid binding to sRAGE; details: plate-bound β-amyloid
T3 construct: generate soluble RAGE (sRAGE) comprised of the V and C domains
Protocol: as §1, §2, §3, §4, §5

T1 sequence (Q15109 23-342 limits assumed): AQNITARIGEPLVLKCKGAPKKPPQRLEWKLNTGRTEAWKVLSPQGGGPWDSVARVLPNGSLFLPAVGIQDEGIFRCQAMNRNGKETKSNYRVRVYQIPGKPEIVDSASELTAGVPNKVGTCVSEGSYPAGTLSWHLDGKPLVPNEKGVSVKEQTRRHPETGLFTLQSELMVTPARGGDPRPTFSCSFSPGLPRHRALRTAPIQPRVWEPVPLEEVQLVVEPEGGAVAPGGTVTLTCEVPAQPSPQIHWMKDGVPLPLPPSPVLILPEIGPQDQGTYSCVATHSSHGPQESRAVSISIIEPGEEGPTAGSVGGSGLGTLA
T3 sequence (Q15109 23-342 limits assumed): as above
T2 sequence (Q15109 23-342 limits assumed): as above

| Molecule | IC50 [1] [nM] | IC50 (S-100b/RAGE interaction) [nM] | IC50 [2] [nM] |
| --- | --- | --- | --- |
| CCCCOc1cc(C(=O)OC)ccc1NC(=O)[C@H](N)Cc1ccc2ccccc2c1 [Example 2, (R)-3-(2-Naphthyl)-2-aminopropionic Acid 4-Methoxycarbonyl-2-butoxyaniline Amide Hydrochloride] | 3160 | 5100 | – |
| CCCCOc1cc(C(=O)OCCN(CC)CC)ccc1NC(=O)[C@@H](Cc1ccc(OCc2ccccc2)cc1)NC(=O)OC(C)(C)C [Example 3, (R)-3-(4-Benzyloxyphenyl)-2-tert-butoxycarbonylaminopropionic Acid 4-Diethylaminoethoxycarbonyl-2-butoxyaniline Amide] | 1500 | 1320 | 1500 |
| CCCCOc1cc(C(=O)OCCN(CC)CC)ccc1NC(=O)[C@H](N)Cc1ccc(OCc2ccccc2)cc1 [Example 4, (R)-3-(4-Benzyloxyphenyl)-2-aminopropionic Acid 4-Diethylaminoethoxycarbonyl-2-butoxyaniline Amide Dihydrochloride] | 1120 | 820 | 2200 |
| CCCCOc1cc(C(=O)OCCN(CC)CC)ccc1NC(=O)[C@@H](Cc1ccc2ccccc2c1)NC [Example 5, (R)-3-(2-Naphthyl)-2-methylaminopropionic Acid 4-Diethylaminoethoxycarbonyl-2-butoxyaniline Amide Dihydrochloride] | 1270 | 2880 | 1810 |
| COC(=O)c1ccc(NC(=O)[C@@H](Cc2ccc(OCc3ccccc3)cc2)NC(=O)OC(C)(C)C)c(O)c1 [Example 6, (R)-3-(4-Benzyloxyphenyl)-2-tert-butoxycarbonylaminopropionic Acid 4-Methoxycarbonyl-2-hydroxyaniline Amide] | – | 6300 | – |
| CC(C)(C)OC(=O)N[C@H](Cc1ccc(OCc2ccccc2)cc1)C(=O)Nc1ccc(C(=O)OC(C)(C)C)cc1OC(C)(C)C [Example 7, (R)-3-(4-Benzyloxyphenyl)-2-tert-butoxycarbonylaminopropionic Acid 4-tert-Butoxycarbonyl-2-tert-butoxyaniline Amide] | 8000 | 1000 to 3000 | – |
| CCN(CC)CCOC(=O)c1ccc(NC(=O)[C@@H](Cc2ccc(OCc3ccccc3)cc2)NC(=O)OC(C)(C)C)c(OCC(C)C)c1 [Example 8, (R)-3-(4-Benzyloxyphenyl)-2-tert-butoxycarbonylaminopropionic Acid 4-Diethylaminoethoxycarbonyl-2-isobutoxyaniline Amide] | – | 2000 | – |
| CCN(CC)CCOC(=O)c1ccc(NC(=O)[C@H](N)Cc2ccc(OCc3ccccc3)cc2)c(OCC(C)C)c1 [Example 9, (R)-3-(4-Benzyloxyphenyl)-2-aminopropionic Acid 4-Diethylaminoethoxycarbonyl-2-isobutoxyaniline Amide Dihydrochloride] | – | 1600 | – |
| CCCCOc1cc(C(=O)OCCN(CC)CC)ccc1NC(=O)[C@@H](Cc1ccccc1)NC(=O)OC(C)(C)C [Example 10, (R)-3-Phenyl-2-tert-butoxycarbonylaminopropionic Acid 4-Diethylaminoethoxycarbonyl-2-butoxyaniline Amide] | – | 950 | – |
| CCCCOc1cc(C(=O)OCCN(CC)CC)ccc1NC(=O)[C@H](N)Cc1ccccc1 [Example 11, (R)-3-Phenyl-2-aminopropionic Acid 4-Diethylaminoethoxycarbonyl-2-butoxyaniline Amide Dihydrochloride] | – | 10000 to 30000 | – |
| CCCCOc1cc(C(=O)OCCN(CC)CC)ccc1NC(=O)[C@@H](Cc1ccc(OCc2ccccc2)cc1)NC(C)C [Example 13, (R)-3-(4-Benzyloxyphenyl)-2-isopropylaminopropionic Acid 4-Diethylaminoethoxycarbonyl-2-butoxyaniline Amide] | 700 | 1000 | 1000 |
| CCCCOc1cc(C(=O)OCCN(CC)CC)ccc1NC(=O)[C@@H](Cc1ccc(OCc2ccccc2)cc1)NCc1ccccc1 [Example 14, (R)-3-(4-Benzyloxyphenyl)-2-benzylaminopropionic Acid 4-Diethylaminoethoxycarbonyl-2-butoxyaniline Amide] | – | 2800 | – |
| CCCCOc1cc(C(=O)OCCN(CC)CC)ccc1NC(=O)[C@@H](Cc1ccc(OCc2ccccc2)cc1)NS(C)(=O)=O [Example 15, (R)-3-(4-Benzyloxyphenyl)-2-methanesulfonylaminopropionic Acid 4-Diethylaminoethoxycarbonyl-2-butoxyaniline Amide] | – | 10000 to 30000 | – |
| CCCCOc1cc(C(=O)OCCN(CC)CC)ccc1NC(=O)[C@@H](Cc1ccc(OCc2ccccc2)cc1)NS(=O)(=O)c1ccccc1 [Example 16, (R)-3-(4-Benzyloxyphenyl)-2-phenylsulfonylaminopropionic Acid 4-Diethylaminoethoxycarbonyl-2-butoxyaniline Amide] | – | 20000 to 30000 | – |
| CCCCOc1cc(C(=O)OCCN(CC)CC)ccc1NC(=O)[C@@H](Cc1ccc(OCc2ccccc2)cc1)NC(=O)NCC [Example 17, (R)-3-(4-Benzyloxyphenyl)-2-ethylcarbamoylaminopropionic Acid 4-Diethylaminoethoxycarbonyl-2-butoxyaniline Amide] | – | 10000 | – |
| CCCCOc1cc(C(=O)OCCN(CC)CC)ccc1NC(=O)[C@@H](Cc1ccc(OCc2ccccc2)cc1)NC(=O)NC(C)(C)C [Example 18, (R)-3-(4-Benzyloxyphenyl)-2-tert-butylcarbamoylaminopropionic Acid 4-Diethylaminoethoxycarbonyl-2-butoxyaniline Amide] | 840 | 2300 | 2000 |
| CCN(CC)CCOc1ccc(NC(=O)[C@@H](Cc2ccc(OCc3ccccc3)cc2)NC(=O)OC(C)(C)C)c(OCCN(CC)CC)c1 [Example 19, (R)-3-(4-Benzyloxyphenyl)-2-tert-butoxycarbonylaminopropionic Acid 4-Diethylaminoethoxy-2-diethylaminoethoxyaniline Amide] | 800 | 1140 | 800 |
| CCN(CC)CCCOc1ccc(NC(=O)[C@@H](Cc2ccc(OCc3ccccc3)cc2)NC(=O)OC(C)(C)C)c(OCCCN(CC)CC)c1 [Example 21, (R)-3-(4-Benzyloxyphenyl)-2-tert-butoxycarbonylaminopropionic Acid 4-(3-Diethylamino-1-propoxy)-2-(3-diethylamino-1-propoxy)aniline Amide] | 460 | 640 | 1230 |
| CCN(CC)CCOC(=O)c1ccc(NC(=O)[C@@H](Cc2ccc(OCc3ccccc3)cc2)NC(=O)OC(C)(C)C)c(OCc2ccco2)c1 [Example 23, (R)-3-(4-Benzyloxyphenyl)-2-tert-butoxycarbonylaminopropionic Acid 4-Diethylaminoethoxycarbonyl-2-(2-furylmethoxy)aniline Amide] | – | 15500 | – |
| CCN(CC)CCOC(=O)c1ccc(NC(=O)[C@H](N)Cc2ccc(OCc3ccccc3)cc2)c(OCc2ccco2)c1 [Example 24, (R)-3-(4-Benzyloxyphenyl)-2-aminopropionic Acid 4-Diethylaminoethoxycarbonyl)-2-(2-furylmethoxy)aniline Amide Dihydrochloride] | – | 2700 | – |
| CCCCOc1cc(C(=O)OCCN(CC)CC)ccc1NC(=O)[C@@H](Cc1ccc2ccccc2c1)NC(C)=O [Example 25, (R)-3-(2-Naphthyl)-2-acetylaminopropionic Acid 4-Diethylaminoethoxycarbonyl-2-butoxyaniline Amide] | – | 15000 | – |
| CCCCOc1cc(C(=O)OCCN(CC)CC)ccc1NC(=O)[C@@H](Cc1ccc(OCc2ccccc2)cc1)NC(C)=O [Example 26, (R)-3-(4-Benzyloxyphenyl)-2-acetylaminopropionic Acid 4-Diethylaminoethoxycarbonyl-2-butoxyaniline Amide] | – | 5600 | – |
| (R)-3-(2-Naphthyl)-2-guanidinylpropionic Acid 4-Diethylaminoethoxycarbonyl-2-butoxyaniline Amide Dihydrochloride [Example 12] | 700 | 300 to 1000 | 5000 |
| (R)-3-(4-Benzyloxyphenyl)-2-aminopropionic Acid 4-(3-Diethylamino-1-propoxy)-2-(3-diethylamino-1-propoxyaniline Amide Trihydrochloride [Example 22] | 680 | 920 | 1730 |
| (R)-3-(4-Benzyloxyphenyl)-2-aminopropionic Acid 4-Diethylaminoethoxy-2-diethylaminoethoxyaniline Amide Trihydrochloride [Example 20] | 1000 | 840 | 1000 |
